Laboratory results: ChEMBL document CHEMBL1909529, “Molecular dynamics simulations and MM/GBSA methods to investigate binding mechanisms of aminomethylpyrimidine inhibitors with DPP-IV” (Bioorg Med Chem Lett, 2011)

Target: Dipeptidyl peptidase 4 (Homo sapiens, UniProt P27487)
Assay: Inhibition of DPP4

Chain of Dipeptidyl peptidase 4 (P27487 whole entry): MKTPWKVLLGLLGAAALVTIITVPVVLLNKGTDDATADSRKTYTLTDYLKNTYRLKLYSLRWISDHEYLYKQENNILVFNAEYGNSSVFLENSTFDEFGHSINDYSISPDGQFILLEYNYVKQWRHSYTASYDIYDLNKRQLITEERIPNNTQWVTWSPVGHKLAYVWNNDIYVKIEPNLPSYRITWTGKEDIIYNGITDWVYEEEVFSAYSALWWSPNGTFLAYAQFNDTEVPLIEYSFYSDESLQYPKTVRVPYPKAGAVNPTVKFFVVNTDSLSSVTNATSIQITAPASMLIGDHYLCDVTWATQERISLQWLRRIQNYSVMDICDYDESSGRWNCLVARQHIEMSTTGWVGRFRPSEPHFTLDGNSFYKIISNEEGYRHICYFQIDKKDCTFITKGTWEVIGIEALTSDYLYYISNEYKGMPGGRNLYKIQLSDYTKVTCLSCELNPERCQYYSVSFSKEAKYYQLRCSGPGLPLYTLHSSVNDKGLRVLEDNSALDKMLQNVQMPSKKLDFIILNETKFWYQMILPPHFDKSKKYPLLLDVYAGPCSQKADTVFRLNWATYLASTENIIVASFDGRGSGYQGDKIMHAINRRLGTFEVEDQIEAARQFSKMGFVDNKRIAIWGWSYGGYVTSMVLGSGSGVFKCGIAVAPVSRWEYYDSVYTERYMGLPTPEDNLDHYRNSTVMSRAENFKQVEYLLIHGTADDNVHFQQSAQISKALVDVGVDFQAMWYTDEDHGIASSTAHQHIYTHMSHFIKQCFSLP

SMILES: NCc1c(N)nc(-c2cc(F)cc(F)c2)nc1-c1ccc(Cl)cc1Cl
- IC50: 3 nM
